In PMC8621857, “Structural Insights into the Azole Resistance of the Candida albicans Darlington Strain Using Saccharomyces cerevisiae Lanosterol 14α-Demethylase as a Surrogate” (Journal of Fungi, 2021):
Read-outs that look alike come from different tables or passages of the source.

How the values were obtained:
[1] = tested on: Phakopspora pachyrhizi SDM Y131F I475T isolates; set-up: method as in PMID 23589453; settings: isolates from soybean plants in Brazil; cited from earlier work
[2] = tested on: S. cerevisiae strain AD3Δ ScErg11 Y140H I471T expressing ScLDM6×His Y140H I471T; experiment: Broth microdilution drug susceptibility assay (MIC80), strain AD3Δ ScErg11 Y140H I471T; assay type: cell-based, Saccharomyces cerevisiae; settings: for resistance conferred, relative expression taken into account: ScLDM6×His Y140H I471T (0.41 of wild-type) vs AD3Δ; for MIC80/Relative Amount of ScLDM6×His / fold-resistance based on the relative amount of recombinant enzyme compared with strain AD3Δ: strain Y140H+I471T, relative expression 0.41
Procedure: (§1) The native ScERG11 gene in yeast cells containing mutant ScERG11-6×His constructs in the PDR5 locus was disrupted by homologous recombination with a cassette encoding the His1 selection marker and sequences homologous with the regions bordering the endogenous ScERG11 ORF to create strains AD3Δ ScErg11 Y140H, AD3Δ ScErg11 I471T and AD3Δ ScErg11Y140H I471T [43]. Transformants were selected on SD-His agar plates incubated at 30 °C for 48–72 h. Genomic DNA was extracted, and DNA sequencing as above was used to confirm deletion of the native ERG11. Strain AD3Δ ScErg11 (denoted as AD3Δ), which overexpresses wild-type ScLDM6×His from the PDR5 locus and has the native ScERG11 gene disrupted, was used as a control strain [43].
(§2) Azole susceptibility was measured as the mean drug concentration required to inhibit 80% of yeast growth (MIC80) compared to a non-drug control, using a standard broth microdilution assay. Serial dilutions of short- (FLC and VCZ), medium- (VT-1161), and long-tailed (ITC and PCZ) azole drugs, and the control drugs micafungin (MCF) and amphotericin B (AMB), were prepared in a 96-well microtiter plate in complete synthetic media lacking uracil, buffered to pH 6.8 [34]. Control and test cells were seeded at an optical density of 600 nm (OD600) of 0.005 (~1.5 × 10^4 colony forming units). After incubation for 48 h at 30 °C with constant agitation (200 rpm), the OD600 nm of each well was measured using a Synergy 2 multi-mode plate reader (BioTek Instruments, Winooski, VT, USA). The experiment was repeated three times (a total of nine measurements for the response of each strain to each drug). GraphPad Prism 5.0 software was used for statistical analysis, using a one-way analysis of variance with a Bonferroni post-hoc test. The statistical significance of comparisons was accepted when p < 0.05.

[3] = tested on: S. cerevisiae strain AD2Δ (native wild-type ScLDM); experiment: Broth microdilution drug susceptibility assay (MIC80), host strain AD2Δ; assay type: cell-based; settings: Saccharomyces cerevisiae, 48 h, pH 6.8
Procedure: Yeast strains used in this study (Supplementary Table S1) were prepared using the AD2Δ strain of S. cerevisiae as a host, using an established protocol. AD2Δ is hypersensitive to xenobiotics due to the deletion of seven major ABC transporters, including those responsible for the efflux of azole drugs. It is also deleted of the PDR3 transcriptional regulator, but contains the gain-of-function Pdr1-3 transcriptional regulator mutation that leads to constitutive overexpression from the PDR5 locus.
as §2

[4] = tested on: S. cerevisiae strain AD3Δ ScErg11 I471T expressing ScLDM6×His I471T; experiment: Broth microdilution drug susceptibility assay (MIC80), strain AD3Δ ScErg11 I471T; assay type: cell-based, Saccharomyces cerevisiae; settings: for MIC80: Saccharomyces cerevisiae, 48 h, 30 °C, pH 6.8, mean (± SEM), n = 3; for MIC80 / MIC80/Relative Amount of ScLDM6×His / fold-resistance based on the relative amount of recombinant enzyme compared with strain AD3Δ: strain I471T; for increased susceptibility compared with AD3Δ: strain AD3Δ ScErg11 I471T, not corrected for expression; for MIC80/Relative Amount of ScLDM6×His / fold-resistance based on the relative amount of recombinant enzyme compared with strain AD3Δ: relative expression 0.51
Procedure: as §1, §2

[5] = target: wild-type and Y140F/H mutants of ScLDM6×His; set-up: method as in earlier work; settings: no significant differences, ref 5 (supplement; Sagatova et al. 2016); cited from earlier work
[6] = tested on: C. albicans strain SC5314; experiment: Agarose disk diffusion assay, control strain SC5314; assay type: cell-based, Candida albicans; settings: for agarose diffusion susceptibility: SC5314, no efflux pump inhibitor
Procedure: (§3) Agarose diffusion assays were carried out as described previously using the Darlington strain of C. albicans (Pfizer Ltd., Sandwich, UK) and the control C. albicans database strain SC5314, which is not resistant to azoles. The Cdr1p-specific inhibitor RC21v3 and the CaMdr1p-specific inhibitor MCC1189 (MicroCombiChem, Wiesbaden, Germany), included in the assay medium at 6 µM, were used to investigate the contribution of efflux pumps to azole resistance in the Darlington strain [49, 50, 51].

[7] = tested on: C. albicans Darlington strain; experiment: Agarose disk diffusion assay, Darlington strain; assay type: cell-based, Candida albicans; settings: for effect of Mdr1 inhibitor MCC1189 on azole susceptibility: MCC1189 at 6 µM in the assay medium; for effect of Cdr1p inhibitor RC21v3 on azole susceptibility: RC21v3 at 6 µM in the assay medium; for agarose diffusion susceptibility: no efflux pump inhibitor
Procedure: as §3

[8] = tested on: S. cerevisiae strain AD3Δ ScErg11 Y140H expressing ScLDM6×His Y140H; experiment: Broth microdilution drug susceptibility assay (MIC80), strain AD3Δ ScErg11 Y140H; assay type: cell-based, Saccharomyces cerevisiae; settings: for MIC80: Saccharomyces cerevisiae, 48 h, 30 °C, pH 6.8, mean (± SEM), n = 3; for MIC80 / MIC80/Relative Amount of ScLDM6×His / fold-resistance based on the relative amount of recombinant enzyme compared with strain AD3Δ: strain Y140H; for MIC80/Relative Amount of ScLDM6×His / fold-resistance based on the relative amount of recombinant enzyme compared with strain AD3Δ: relative expression 0.74; for resistance conferred, relative amount of recombinant ScLDM6×His taken into account: ScLDM6×His Y140H vs AD3Δ; for MIC80 higher than strain AD3Δ ScErg11: strain AD3Δ ScErg11 Y140H vs AD3Δ, p < 0.001
Procedure: as §1, §2

[9] = tested on: S. cerevisiae strain AD3Δ ScErg11 (AD3Δ) overexpressing wild-type ScLDM6×His; experiment: Broth microdilution drug susceptibility assay (MIC80), strain AD3Δ ScErg11; assay type: cell-based, Saccharomyces cerevisiae; settings: for MIC80: Saccharomyces cerevisiae, 48 h, pH 6.8
Procedure: as §1, §2

[10] = Saccharomyces cerevisiae, strain Y140H + I471T, 48 h, 30 °C, pH 6.8, mean (± SEM), n = 3
[11] = strain AD2Δ, 30 °C, mean (± SEM), n = 3, read-out: MIC80
[12] = SC5314, MCC1189 at 6 µM in the assay medium
[13] = SC5314, RC21v3 at 6 µM in the assay medium
[14] = strain AD3Δ, 30 °C, mean (± SEM), n = 3, read-out: MIC80
[15] = strain AD3Δ, relative expression 1

Row | SMILES | resistance conferred by the double mutation Y131F I475T [1] | MIC80/Relative Amount of ScLDM6×His [2] [µM] | fold-resistance based on the relative amount of recombinant enzyme compared with strain AD3Δ [2] [×] | MIC80 [4] [µM] | increased susceptibility compared with AD3Δ [4] [fold] | MIC80/Relative Amount of ScLDM6×His [4] [µM] | fold-resistance based on the relative amount of recombinant enzyme compared with strain AD3Δ [4] [×] | effect of Mdr1 inhibitor MCC1189 on azole susceptibility [7] | effect of Cdr1p inhibitor RC21v3 on azole susceptibility [7] | agarose diffusion susceptibility [7] | MIC80 [8] [µM] | MIC80/Relative Amount of ScLDM6×His [8] [µM] | fold-resistance based on the relative amount of recombinant enzyme compared with strain AD3Δ [8] [×] | other results
1 | CC1(C)CCC(Cc2ccc(Cl)cc2)C1(O)Cn1cncn1 (stereo not drawn) [metconazole] | ~ 100 fold |  |  |  |  |  |  |  |  |  |  |  |  | 
2 | CC[C@@H]([C@H](C)O)n1ncn(-c2ccc(N3CCN(c4ccc(OC[C@@H]5CO[C@@](Cn6cncn6)(c6ccc(F)cc6F)C5)cc4)CC3)cc2)c1=O [PCZ, Posaconazole] |  | 0.646 | 1.5 | 0.27 | 1.6 | 0.527 | 1.3 | no effect on susceptibility | increased susceptibility | resistant | 0.33 | 0.445 | 1.1 | MIC [2, 10]: 0.265 µM; resistance conferred, relative expression taken into account [2]: 1.5 fold; MIC80 [3, 11]: 0.16 µM; Kd [5]: ~500 nM; effect of Mdr1 inhibitor MCC1189 on azole susceptibility [6, 12]: no effect on susceptibility; effect of Cdr1p inhibitor RC21v3 on azole susceptibility [6, 13]: increased susceptibility; susceptibility compared with AD3Δ cells ([8]; cells overexpressing ScLDM6×His Y140H, not corrected for expression): slightly increased susceptibility; MIC80 [9, 14]: 0.423 µM; MIC80/Relative Amount of ScLDM6×His [9, 15]: 0.423 µM
3 | CC(C)(C)C(O)(CCc1ccc(Cl)cc1)Cn1cncn1 (stereo not drawn) [tebuconazole] | ~ 100 fold |  |  |  |  |  |  |  |  |  |  |  |  | 
4 | O[C@@](Cn1cnnn1)(c1ccc(F)cc1F)C(F)(F)c1ccc(-c2ccc(OCC(F)(F)F)cc2)cn1 [VT-1161] |  | 0.165 | 2.2 | 0.0346 | 2.2 | 0.0679 | 0.90 | did not alter the susceptibility | did not alter the susceptibility | resistant | 0.116 | 0.157 | 2.1 | MIC [2, 10]: 0.0676 µM; resistance conferred, relative expression taken into account [2]: 2.2 fold; MIC80 [3, 11]: 0.0288 µM; effect of Mdr1 inhibitor MCC1189 on azole susceptibility [6, 12]: did not alter the susceptibility; effect of Cdr1p inhibitor RC21v3 on azole susceptibility [6, 13]: did not alter the susceptibility; agarose diffusion susceptibility [6]: susceptible; resistance conferred, relative amount of recombinant ScLDM6×His taken into account [8]: 2.1 fold; resistance of cells containing the Y140H mutation in ScLDM6×His ([8]; discussion, significant but modest): 2 fold; MIC80 higher than strain AD3Δ ScErg11 ([8]; not corrected for expression): 1.5 fold; MIC80 [9, 14]: 0.0754 µM; MIC80/Relative Amount of ScLDM6×His [9, 15]: 0.0754 µM
5 | Fc1ccc([C@]2(Cn3cncn3)O[C@H]2c2ccccc2Cl)cc1 (racemic) [epoxiconazole] | ~ 100 fold |  |  |  |  |  |  |  |  |  |  |  |  | 
6 | CC(C1CC1)C(O)(Cn1cncn1)c1ccc(Cl)cc1 (stereo not drawn) [cyproconazole] | ~ 100 fold |  |  |  |  |  |  |  |  |  |  |  |  | 
7 | OC(Cn1cncn1)(Cn1cncn1)c1ccc(F)cc1F [FLC, fluconazole] |  | 28.0 | 7.7 | 1.88 | 1.9 | 3.69 | 1.0 | did not alter the susceptibility | did not alter the susceptibility | resistant | 7.4 | 10 | 2.8 | MIC80 [2, 10]: 11.5 µM; MIC80 higher than AD3Δ ScErg11 cells ([2]; strain AD3Δ ScErg11 Y140H I471T, not corrected for expression, p < 0.001): approximately 3 fold; MIC80 higher than cells overexpressing ScLDM6×His Y140H ([2]; strain AD3Δ ScErg11 Y140H I471T, p < 0.001): 1.5 fold; MIC80 [3]: 1.33 µM; Kd [5]: ~500 nM; effect of Cdr1p inhibitor RC21v3 on azole susceptibility [6]: did not alter the susceptibility; effect of Mdr1 inhibitor MCC1189 on azole susceptibility [6]: did not alter the susceptibility; agarose diffusion susceptibility [6]: susceptible; resistance conferred, relative amount of recombinant ScLDM6×His taken into account [8]: 2.8 fold; MIC80 higher than strain AD3Δ ScErg11 ([8]; not corrected for expression): ~ 2 fold; MIC80/Relative Amount of ScLDM6×His [9]: 3.64 µM; MIC80 [9]: 3.64 µM
